Test results reported in patent publication US9126945B2, “N-(3-carbamoylphenly)-1H-pyrazole-5-carboxamide derivatives and the use thereof for controlling animal pests” (BAYER INTELLECTUAL PROPERTY GMBH, priority 2011, dated 2015).

Experiments:
[1] = test system: Tetranychus urticae; test: Tetranychus test, OP-resistant (TETRUR spray treatment), bean leaf discs; type: in vivo; conditions: application rate 500 g/ha; after 6 days
Protocol: Tetranychus Test, OP-Resistant (TETRUR Spray Treatment)
After a time of 6 days, the efficacy in % is determined.

[2] = test system: Boophilus microplus; test: Boophilus microplus test (BOOPMI injection); type: in vivo; conditions: for % Activity dat: BOOPMI injection, 7 dat
Protocol: Boophilus microplus Test (BOOPMI Injection)
(§1) Solvent: dimethyl sulphoxide
The active compound solution is injected into the abdomen (Boophilus microplus), and the animals are transferred into dishes and stored in a climate-controlled room. The activity is assessed by laying of fertile eggs.
The active compound solution is injected into the abdomen (Boophilus microplus), and the animals are transferred into dishes and stored in a climate-controlled room.
The activity is assessed by laying of fertile eggs. 100% means that none of the ticks has laid any fertile eggs.

[3] = test system: Boophilus microplus females of the SP-resistant Parkhurst strain; test: Boophilus microplus test (DIP); type: in vivo; conditions: 100 ppm
Protocol: Boophilus microplus Test (DIP)
Test animals: adult engorged Boophilus microplus females of the SP-resistant Parkhurst strain
as §1
10 mg of active compound are dissolved in 0.5 ml of dimethyl sulphoxide. For the purpose of preparing a suitable formulation, the active compound solution is diluted with water to the concentration desired in each case.
This active compound preparation is pipetted into tubes. 8-10 ticks are transferred into a further tube with holes. The tube is immersed into the active compound formulation, and all ticks are completely wetted. After the liquid has rum off, the ticks are transferred to filter discs in plastic dishes and kept in a climatized room. The activity is assessed after 7 days by laying of fertile eggs. Eggs whose fertility is not outwardly visible are stored in glass tubes in a climate-controlled cabinet until the larvae hatch. An efficacy of 100% means that none of the ticks has laid any fertile eggs.
10 mg of active compound are dissolved in 0.5 ml of dimethyl sulphoxide. For the purpose of preparing a suitable formulation, the active compound solution is diluted with water to the concentration desired in each case (in ppm).
This active compound preparation is pipetted into tubes. 8-10 ticks are transferred into a further tube with holes. The tube is immersed into the active compound formulation, and all ticks are completely wetted. After the liquid has run out, the ticks are transferred onto filter discs in plastic dishes and stored in a climate-controlled room.
The activity is assessed after the desired time by laying of fertile eggs. Eggs whose fertility is not evident from the outside are kept in glass tubes in a climate-controlled cabinet until the larvae have hatched. An effect of 100% means that none of the ticks has laid any fertile eggs.

[4] = test system: Plutella xylostella; test: Plutella xylostella spray test (PLUTMA); type: in vivo; conditions: 168 h, 7 dat
Text: Plutella xylostella Spray Test (PLUTMA)
(§2) Solvent: 7 parts by weight of dimethylformamide
(§3) Emulsifier: 2 parts by weight of alkylaryl polyglycol ether
(§4) If the addition of ammonium salts or/and penetrants is required, these are in each case added in a concentration of 1000 ppm to the solution of the preparation.

[5] = test system: Spodoptera frugiperda; test: Spodoptera frugiperda spray test (SPODFR), cotton leaves, ppm; type: in vivo; conditions: 168 h, 7 dat
Text: Spodoptera frugiperda Spray Test (SPODFR)
as §2, §3, §4
Cotton leaves (Gossypium hirsutum) are sprayed with an active compound formulation of the desired concentration and populated with caterpillars of the armyworm (Spodoptera frugiperda).

[6] = test system: Frankliniella occidentalis; test: Frankliniella occidentalis spray test (FRANOC); type: in vivo; conditions: 168 h, 7 dat
Text: Frankliniella occidentalis Spray Test (FRANOC)
as §4

[7] = test system: Liriomyza trifolii; test: Liriomyza trifolii spray test (LIRITR); type: in vivo; conditions: 168 h, 7 dat
Text: Liriomyza trifolii Spray Test (LIRITR)
as §4

[8] = test system: Phaedon cochleariae; test: Phaedon test (PHAECO spray treatment), Chinese cabbage leaf discs
[9] = Phaedon cochleariae, in Brassica rapa, foliar, 168 h, read-out: % Activity dat

Cn1nc(C(F)(F)C(F)(F)F)c(C(F)(F)F)c1C(=O)Nc1ccc(Cl)c(C(=O)NC2(C#N)CC2)c1 [Example 10]
efficacy in % [1]: 90%
efficacy in % (laying of fertile eggs) ([2]; 20 μg/animal, after 7 days): 100%
% Activity dat ([2]; 0.16 μg/animal): 80%
% Activity dat ([2]; 0.8 μg/animal): 100%
efficacy in % (laying of fertile eggs) ([3]; after 7 days): 100%
inhibition at 100 ppm ([3]; Rhipicephalus microplus, 168 h, BOOPMI DIP, 7 dat): 100%
inhibition at 20 ppm [4]: 100%
inhibition at 20 ppm [5]: 100%
inhibition at 20 g/ha ([6]; 20 g/ha): 90%
inhibition at 500 g/ha ([6]; 500 g/ha): 100%
inhibition at 500 g/ha [7]: 100%
inhibition at 20 g/ha [8, 9]: 100%
inhibition at 100 g/ha [8, 9]: 100%
efficacy in % ([8]; application rate 500 g/ha, after 7 days): 100%
